# Results as given in PubChem BioAssay AID651648 (Sanford-Burnham Center for Chemical Genomics, 2012).
# The source made the active and inactive calls. No rule for the calls is given here.
# Target: CRF-binding protein / CRF-R2 receptor complex (human)
# Experiment: activators of CRF-R2 paired with CRF-BP – cell-based, 384-well, SAR follow-up (AID 651648)
# Conditions: cells expressing CRF-BP/CRF-R2 complex, agonist read-out
row,Compound,EC50
1,Cc1nc2c(c(=O)c3ccccc3n2C)c(=O)n1C1CCCCCC1,> 20 µM (inactive)
2,CC(=O)Nc1ccc(Sc2ncccc2C(=O)Nc2ccc(Br)cc2)cc1,15.5 µM
3,CC(=O)Nc1ccc(Sc2ncccc2C(=O)Nc2ccc(C(F)(F)F)cc2)cc1,> 20 µM (inactive)
4,O=C(Nc1cc(S(=O)(=O)N2CCCCC2)ccc1O)c1ccccc1NS(=O)(=O)c1ccc(F)c(F)c1,> 20 µM (inactive)
5,CCOc1ccc(N(CC(=O)N2CCOCC2)S(=O)(=O)c2ccc(C)cc2)cc1,> 20 µM (inactive)
6,CCCCCn1nc(-c2ccccc2)c2nc3ccccc3nc21,3.16 µM
7,COc1ccc(NC(=O)c2ccccc2Sc2ccc(NC(C)=O)nc2)cc1,> 20 µM (inactive)
8,CCOc1ccccc1N(CC(=O)N1CCC(C)CC1)S(=O)(=O)c1ccc(SC)cc1,> 20 µM (inactive)
9,CC1(C)C(=O)OC(c2cccn2-c2ccc([N+](=O)[O-])cc2)C2(CCCCC2)C1=O (stereo not drawn),> 20 µM (inactive)
10,CCOc1ccccc1N(CC(=O)N1CCOCC1)S(=O)(=O)c1ccc(C#N)cc1,> 20 µM (inactive)
11,CCOc1ccccc1N(CC(=O)N1CCOCC1)S(=O)(=O)c1ccc(C)cc1,2.84 µM
12,Cc1ccc(S(=O)(=O)NCC(=O)N(CC(=O)NCc2ccco2)Cc2ccccc2)cc1,6.7 µM
13,CCOC(=O)c1sc(NC(=O)c2cc(-c3ccccc3)nc3ccccc23)c(C#N)c1C,> 20 µM (inactive)
14,O=C1Nc2ccccc2N(O)N1c1cc(-c2cccc(Cl)c2)no1,> 20 µM (inactive)
15,O=C(CCn1c2c(c3ccccc31)CCCC2)NNC(=O)c1ccccc1C(=O)O,> 20 µM (inactive)
16,CCOc1ccccc1N(CC(=O)N1CCCCCC1)S(=O)(=O)c1ccc(SC)cc1,> 20 µM (inactive)
17,Cc1cc(S(=O)(=O)c2cc3ccc(O)c(C)c3oc2=O)ccc1F,2.29 µM
18,COc1ccc(CCn2c(C(C)C)nc3c(c(=O)c4ccccc4n3C)c2=O)cc1,> 20 µM (inactive)
19,COc1ccc(C)cc1N(CC(=O)N1CCOCC1)S(=O)(=O)c1ccccc1,10.7 µM
20,CCOc1ccccc1N(CC(=O)N1CCOCC1)S(=O)(=O)c1ccc(OC)cc1,5.85 µM
21,CCOc1cccc(N(CC(=O)N2CCOCC2)S(=O)(=O)c2ccc(OC)cc2)c1,> 20 µM (inactive)
22,Cc1cccc(Oc2ccc(NC(=O)c3ccccc3C(=O)O)cc2)c1C,> 20 µM (inactive)
23,COc1ccccc1N(CC(=O)N1CCOCC1)S(=O)(=O)c1ccc(C)cc1,> 20 µM (inactive)
24,CCCCCCc1cc2cc(C(=O)NCc3ccccc3)c(=N)oc2cc1O,> 20 µM (inactive)

row,Compound,EC50
1,O=C(CC1CCCCC1)c1c(O)c2ccccc2oc1=O,5.68 µM
2,Cc1ccc2oc(=O)c(/C=C(\O)c3sc(C)nc3C)nc2c1,> 20 µM (inactive)
3,Cc1cc(NC(=O)COC(=O)[C@H](Cc2ccccc2)NC(=O)c2ccco2)no1,5.58 µM
4,O=C(NC(=O)c1ccccc1O)c1ccc(C(F)(F)F)cc1,13.6 µM
5,CSCCC(NC(=O)c1ccco1)C(=O)N1CC=C(c2ccccc2)CC1 (stereo not drawn),13.5 µM
6,CCOc1ccccc1N(CC(=O)N1CCOCC1)S(=O)(=O)c1cc(C(=O)OC)ccc1OC,> 20 µM (inactive)
7,CCOc1ccccc1N(CC(=O)N1CCCCC1)S(=O)(=O)c1ccc(SC)cc1,0.473 µM
8,CCOc1ccc(N(CC(=O)N2CCOCC2)S(=O)(=O)c2ccccc2)cc1,> 20 µM (inactive)
9,O=C(O)c1ccc(COc2ccccc2C=C2C(=O)c3ccccc3C2=O)cc1,> 20 µM (inactive)
10,CCOc1ccc(S(=O)(=O)N(CC(=O)N2CCOCC2)c2ccccc2)cc1,> 20 µM (inactive)
11,CCOc1ccccc1N(CC(=O)N1CCOCC1)S(=O)(=O)c1cccc(Br)c1,1.45 µM
12,CCOc1ccccc1N(CC(=O)N1CCOCC1)S(=O)(=O)c1ccccc1,4.77 µM
13,CCc1nc2c(c(=O)c3ccccc3n2C)c(=O)n1C1CCCCCC1,4.68 µM
14,COc1ccccc1N(CC(=O)N1CCOCC1)S(=O)(=O)c1ccccc1,> 20 µM (inactive)
15,Oc1ccc2ccccc2c1CN1CCCCC1,> 20 µM (inactive)
16,COc1ccc(CN2CCCCC2C)cc1C (stereo not drawn),> 20 µM (inactive)
17,CC(=O)Nc1ccc(Sc2ncccc2C(=O)Nc2ccc(F)cc2)cn1,0.953 µM
18,CC(Oc1ccc(Br)cc1)C(=O)N1CCc2ccccc21 (stereo not drawn),> 20 µM (inactive)
19,CCc1ccccc1N(CC(=O)N1CCOCC1)S(=O)(=O)c1ccc(C)cc1,> 20 µM (inactive)
20,CCOc1ccccc1N(CC(=O)N1CCOCC1)S(=O)(=O)c1ccc(Br)cc1OC(F)(F)F,7.02 µM
21,CC(=O)Nc1ccc(Sc2ccccc2C(=O)Nc2ccc(F)cc2)cn1,> 20 µM (inactive)
22,CC(=O)Nc1ccc(Sc2ncccc2C(=O)Nc2ccccc2Br)cc1,> 20 µM (inactive)
23,CC1(C(=O)NC(=S)NNC(=O)c2ccncc2)CCCCC1,5.94 µM
24,Cc1cc(=O)[nH]c(SCC(=O)Nc2ccc(Br)cc2)c1C#N,> 20 µM (inactive)

row,Compound,EC50
1,CCOC(=O)c1cc2ccccc2n1CCN(CC)CC,> 20 µM (inactive)
2,Cc1[nH]n(-c2cccc(Cl)c2)c(=O)c1-c1ccc(Cl)cc1,> 20 µM (inactive)
3,CC(=O)Nc1ccc(Sc2ncccc2C(=O)Nc2ccc(OC(F)(F)F)cc2)cn1,5.32 µM
4,O=C(O)CCNc1nc(-c2ccccc2)c2cc(Br)ccc2n1,> 20 µM (inactive)
5,CCOc1ccccc1N(CC(=O)N1CCOCC1)S(=O)(=O)c1cccc(F)c1,4.77 µM
6,COc1ccc(NC(=O)c2cccnc2Sc2ccc(NC(C)=O)nc2)cc1,> 20 µM (inactive)
7,CCOc1ccc(N(CC(=O)N2CCOCC2)S(=O)(=O)c2ccc(OC)cc2)cc1,> 20 µM (inactive)
8,CCOc1ccccc1N(CC(=O)N1CCCC1)S(=O)(=O)c1ccc(SC)cc1,> 20 µM (inactive)
9,CC(=O)Nc1ccc(Sc2ncccc2C(=O)Nc2ccc(F)cc2)cc1,> 20 µM (inactive)
10,CC(=O)Nc1ccc(Sc2ncccc2C(=O)Nc2cc(C)cc(C)c2)cn1,> 20 µM (inactive)
11,CCOc1ccc(N(CC(=O)N2CCOCC2)S(=O)(=O)c2ccc(SC)cc2)cc1,> 20 µM (inactive)
12,CCOc1cccc(N(CC(=O)N2CCOCC2)S(=O)(=O)c2ccccc2)c1,> 20 µM (inactive)
13,O=C(COC(=O)[C@H](Cc1ccccc1)NC(=O)c1ccco1)NCc1ccccc1,11.3 µM
14,COc1ccc(C(=O)CSc2nnn(-c3cccc(NC(C)=O)c3)n2)cc1,> 20 µM (inactive)
15,CCOc1ccccc1N(CC(=O)N1CCOCC1)S(=O)(=O)c1ccc(SC)cc1,1.47 µM
16,CC(C)c1nc2c(c(=O)c3ccccc3n2C)c(=O)n1CCc1ccccc1,7.24 µM
17,Cc1c(-n2cc(C(=O)c3ccccc3O)cc(C#N)c2=O)c(=O)n(-c2ccccc2)n1C,> 20 µM (inactive)
18,COc1ccc(C)cc1NC(=O)c1cccnc1Sc1ccc(NC(C)=O)cc1,> 20 µM (inactive)
19,O=c1c(/C=C(\O)c2ccc(F)cc2)nc2ccccc2n1-c1ccccc1,9.91 µM
20,O=C(Nc1ccc(SC(F)F)cc1)c1ccc2c(=O)n3c(nc2c1)CCC3,> 20 µM (inactive)
21,Cc1ccccc1N(CC(=O)N1CCOCC1)S(=O)(=O)c1ccc(Cl)cc1,> 20 µM (inactive)
22,CCOc1ccccc1N(CC(=O)N1CCOCC1)S(=O)(=O)c1ccc(OC)cc1OC,> 20 µM (inactive)
23,N#Cc1c(-c2ccccc2)cc(-c2ccccc2)nc1SCC(=O)NCC(=O)O,> 20 µM (inactive)
24,Cc1sc(NC(=O)C2CCCCC2C(=O)O)c(C(N)=O)c1-c1ccc(C(C)(C)C)cc1 (stereo not drawn),9.52 µM

row,Compound,EC50
1,CCOc1ccccc1N(CC(=O)N1CCOCC1)S(=O)(=O)c1ccc(F)cc1,3.78 µM
2,Cc1ccc2nc(NCCC(=O)O)nc(-c3ccccc3)c2c1,> 20 µM (inactive)
3,CC1(C)CSC(=NCc2ccccc2)N1,7.83 µM
4,CC(=O)Nc1cccc(OC(=O)c2ccoc2C)c1,9.4 µM
5,CSCCC(NC(=O)c1ccco1)C(=O)OC(C)C(=O)NC(=O)NC1CCCCC1 (stereo not drawn),1.61 µM
6,CC(=O)Nc1ccc(Sc2ncccc2C(=O)Nc2ccc(N(O)O)cc2)cc1,1.96 µM
7,O=c1c(/C=C(\O)c2ccccc2)nc2ccccc2n1-c1ccccc1,8.1 µM
8,CC(=O)Nc1ccc(Sc2ncccc2C(=O)Nc2cc(Cl)cc(Cl)c2)cn1,> 20 µM (inactive)
9,O=C(Nc1ccc(Br)cc1Cl)c1ccc2c(=O)n3c(nc2c1)CCC3,> 40 µM (inactive)
10,CCOC(=O)N1CCN(C(=O)c2c[nH]c3ccc(S(=O)(=O)N(C)c4cccc(C)c4)cc3c2=O)CC1,2.51 µM
11,CC(=O)Nc1ccc(Sc2ncccc2C(=O)Nc2cccc(OC(F)(F)F)c2)cc1,> 20 µM (inactive)
12,COc1ccc(S(=O)(=O)N(CC(=O)N2CCOCC2)c2ccccc2OC)cc1,> 20 µM (inactive)
13,CCOc1ccccc1N(CC(=O)N1CCOCC1)S(=O)(=O)c1ccc(Br)cc1,1.5 µM
14,O=[N+]([O-])c1ccc(O)c(Nc2ncnc3ccc(Br)cc23)c1,> 20 µM (inactive)
15,CC(=O)Nc1ccc(Sc2ncccc2C(=O)Nc2ccccc2F)cc1,> 20 µM (inactive)
16,CCC1CCCCN1Cc1ccc(OC)c(C)c1 (stereo not drawn),> 20 µM (inactive)
17,CCOc1ccccc1N(CC(=O)N1CCOCC1)S(=O)(=O)c1ccccc1C#N,> 20 µM (inactive)
18,CCOc1ccccc1N(CC(=O)N1CCOCC1)S(=O)(=O)c1cccc(OC)c1,3.67 µM
19,O=C(O)c1cc(Cl)ccc1-c1ccc(/C=C/c2cc(C(F)(F)F)[nH]c(=O)n2)o1,5.43 µM
20,CCNC(=S)NNC(=O)c1cccn(Cc2ccc(Cl)cc2Cl)c1=O,> 20 µM (inactive)
21,O=C(Nc1cc(Cl)cc(Cl)c1)c1coc(=O)c(Br)c1,> 20 µM (inactive)
